Measurements as given in paper PMC10845951, “Characterization of a selective, iron-chelating antifungal compound that disrupts fungal metabolism and synergizes with fluconazole” (Microbiology Spectrum, 2024).

Legend:
[1] = system: Candida glabrata (ATCC15545; JEY10028) wild type; assay: Compound screening: proliferation (OD600, 24 h); assay type: cell-based; settings: wild-type C. glabrata (JEY10028), SD media
Description: For experiments, yeast cells were routinely cultured in YPD media and incubated at 30°C overnight. The cultures were refreshed the next day for 2–3 h in YNB −iron (0.69% yeast nitrogen base without amino acids or iron, with 2% dextrose) media, unless stated, at the same temperature. After incubation, the optical density (OD600) of the cell cultures was measured and adjusted to 0.15.
The collismycin compounds were provided by EntreChem (Spain) at stock solutions of 20 mM in DMSO and stored at −20°C. For serial dilutions of the compounds in clear 96-well plates, intermediate stock concentrations of 100 µM of compound (100 µL for each technical replicate) were prepared in YNB −iron media unless otherwise specified, and 1:1 serial dilutions were performed using a multi-channel pipette. Fifty microliters of cell culture (OD600 = 0.15) were added to the wells containing the compounds, for a total volume of 150 µL. The final concentrations in the wells (with three technical replicates) were equivalent to 0.5, 1, 2.1, 4.2, 8.4, 16.7, 33.3, and 66.6 µM. The OD600 of each well was quantified, and the plates were incubated inside plastic bags (to prevent evaporation) at 30°C for 24 h, after which the final OD600 was measured. The EC50 was calculated using the four-parameter log logistic function with the drc package in R ([57]).

C. albicans WT = settings: 24 h
[2] = Candida albicans, read-out: C. albicans WT Inhibition (%)

Compound	antifungal activity [1]	susceptibility to fluconazole alone (C. albicans WT; YNB −iron)	inhibition at 3.13 µM (C. albicans WT; [2]) [%]	inhibition at 6.25 µM (C. albicans WT; [2]) [%]	inhibition at 25 µM (C. albicans WT; [2]) [%]	inhibition at 50 µM (C. albicans WT; [2]) [%]	inhibition at 100 µM (C. albicans WT; [2]) [%]
COc1cc(-c2ccccn2)nc(CO)c1SC [ColH, collismycin H]	lacked antifungal activity even at very high concentrations						
OC(Cn1cncn1)(Cn1cncn1)c1ccc(F)cc1F [Fluconazole, fluconazole]		only susceptible to high concentrations	-1.65	9.43	14.8	15.4	19.6
